ChEMBL document CHEMBL1141728, “Transtorine, a new quinoline alkaloid from Ephedra transitoria” (1998)
Values after ≈ are worked out from the molar mass of the structure shown. Active and inactive are the calls of the source. No cut-off for these calls is given here.

How the values were obtained:
Proteus mirabilis = experiment: Antibacterial activity against Proteus mirabilis by disk diffusion method
Bacillus subtilis = experiment: Antibacterial activity against Bacillus subtilis by disk diffusion method
Pseudomonas aeruginosa = experiment: Antibacterial activity against Pseudomonas aeruginosa by disk diffusion method; format: functional
Shigella flexneri = experiment: Antibacterial activity against Shigella flexneri by disk diffusion method; format: functional
Enterobacter cloacae = experiment: Antibacterial activity against Enterobacter cloacae by disk diffusion method; format: functional
Staphylococcus aureus = experiment: Antibacterial activity against Staphylococcus aureus by disk diffusion method; format: functional

Row | Structure (SMILES) | MIC (Proteus mirabilis) [µg/mL] | MIC (Bacillus subtilis) [µg/mL] | MIC (Pseudomonas aeruginosa) [µg/mL] | MIC (Shigella flexneri) [µg/mL] | MIC (Enterobacter cloacae) [µg/mL] | MIC (Staphylococcus aureus) [µg/mL] | Activity (Shigella flexneri)
1 | O=C(O)c1cn(C2CC2)c2cc(N3CCNCC3)c(F)cc2c1=O [CIPROFLOXACIN] | 20 (≈ 60.4 µM) | 20 (≈ 60.4 µM) | 20 (≈ 60.4 µM) | 20 (≈ 60.4 µM) | – | – | –
2 | O=C(O)c1cc(=O)c2ccccc2[nH]1 [TRANSTORINE] | – | – | 500 (≈ 2640 µM) | – | 450 (≈ 2380 µM) | 380 (≈ 2010 µM) | inactive
